The text below walks through data of ChEMBL document CHEMBL4680194, “Synthesis and biological evaluation of 1,2,4-triazole derivatives as potential neuroprotectant against ischemic brain injury” (Eur J Med Chem, 2020).

Assay [1] has as its system PC-12. Put plainly: Cytoprotective activity against SNP-induced cell death in rat PC-12 cells assessed as increase in cell viability incubated for 1 hr followed by SNP stimulation and measured after 24 hrs by LDH assay. In kind it is functional, cell-based. The note with it: time 25.0 hrs.
Assay [2] deals with PC-12. Put plainly: Cytoprotective activity against H2O2-induced cell death in rat PC-12 cells assessed as increase in cell viability incubated for 1 hr followed by H2O2 stimulation and measured after 5 hrs by LDH assay. Format: functional, cell-based. The note with it: time 6.0 hrs.
Assay [3] deals with PC-12. Put plainly: Cytoprotective activity against SNP-induced cell death in rat PC-12 cells assessed as increase in cell viability at 10 uM incubated for 1 hr followed by SNP stimulation and measured after 24 hrs by MTT assay. The note with it: time 25.0 hrs. In kind it is functional.
Assay [4] has as its system PC-12. Put plainly: Cytoprotective activity against H2O2-induced cell death in rat PC-12 cells assessed as increase in cell viability at 10 uM incubated for 1 hr followed by H2O2 stimulation and measured after 5 hrs by MTT assay. In kind it is functional. The settings on record: time 6.0 hrs.
The nature of assay [5]: Metal chelating activity of the compound assessed as Fe2+-compound complex formation incubated for 10 mins in presence of ferrozine by UV-visible spectrophotometry.

The source made the active and inactive calls. The rule behind the calls is not given here.

Turning to `Cc1ccc(-c2nc(-c3ccccc3O)n(-c3ccc(S(N)(=O)=O)cc3)n2)c(O)c1`, the Activity result in assay [1] and in assay [2] was “Dose-dependent effect” in each case. Further, the result in assay [3] and in assay [4] was Active. For the same molecule, the IC50 in assay [5] (read-out: IC50) turned out to be 35.1 µM.
For `NS(=O)(=O)c1ccc(-n2nc(-c3ccc(Cl)cc3O)nc2-c2ccccc2O)cc1`, the Activity result in assay [1] and in assay [2] was “Dose-dependent effect” throughout. Moreover, the result in assay [3] and in assay [4] was Active. The IC50 in assay [5] (read-out: IC50) is 36 µM.
Consider `NS(=O)(=O)c1ccc(-n2nc(-c3ccc(C(F)(F)F)cc3)nc2-c2ccccc2O)cc1`, for which the outcome in assay [3] and in assay [4] was inactive. In assay [5], the IC50 entry is “Not Active”.
Consider `NS(=O)(=O)c1ccc(-n2nc(-c3ccc([N+](=O)[O-])cc3O)nc2-c2ccccc2O)cc1`, for which the Activity result in assay [1] and in assay [2] was “Dose-dependent effect” in each case. Further, the outcome in assay [3] and in assay [4] was Active. For the same molecule, in assay [5] (read-out: IC50), the IC50 worked out at 27.5 µM.
In the case of `NS(=O)(=O)c1ccc(-n2nc(-c3ccc(C(F)(F)F)cc3O)nc2-c2ccccc2O)cc1`, the Activity result in assay [1] and in assay [2] was “Dose-dependent effect” throughout. Further, the outcome in assay [3] and in assay [4] was Active. Moreover, the IC50 in assay [5] (read-out: IC50) was found to be 22.6 µM.
Turning to `Cc1ccc(-c2nc(-c3ccc(C)cc3O)n(-c3ccc(S(N)(=O)=O)cc3)n2)c(O)c1`, the result in assay [3] and in assay [4] was inactive.
With `NS(=O)(=O)c1ccc(-n2nc(-c3ccc(F)cc3O)nc2-c2ccc(F)cc2O)cc1`, the result in assay [3] and in assay [4] was inactive.
With `NS(=O)(=O)c1ccc(-n2nc(-c3ccc([N+](=O)[O-])cc3)nc2-c2ccccc2O)cc1`, the outcome in assay [3] and in assay [4] was inactive. For the same molecule, the IC50 entry in assay [5] is on record as “Not Active”.
In the case of `NS(=O)(=O)c1ccc(-n2nc(-c3ccccc3O)nc2-c2ccccc2O)cc1`, the Activity entry in assay [1] and in assay [2] was “Dose-dependent effect” in each case. The outcome in assay [3] and in assay [4] was Active. Also, the IC50 in assay [5] (read-out: IC50) was determined as 42.9 µM.
For the molecule `NS(=O)(=O)c1ccc(-n2nc(-c3ccc(F)cc3)nc2-c2ccccc2O)cc1`, the outcome in assay [3] and in assay [4] was inactive. Besides, the IC50 result in assay [5] is reported as “Not Active”.
As for `NS(=O)(=O)c1ccc(-n2nc(-c3ccc(C(F)(F)F)cc3O)nc2-c2ccc(C(F)(F)F)cc2O)cc1`, the outcome in assay [3] and in assay [4] was inactive.
Turning to `NS(=O)(=O)c1ccc(-n2nc(-c3ccc(F)cc3O)nc2-c2ccccc2O)cc1`, the Activity result in assay [1] and in assay [2] was “Dose-dependent effect” in each case. In addition, the outcome in assay [3] and in assay [4] was Active. Moreover, the IC50 in assay [5] (read-out: IC50) was 46.2 µM.
`NS(=O)(=O)c1ccc(-n2nc(-c3ccccc3)nc2-c2ccccc2O)cc1`: the result in assay [3] and in assay [4] was inactive. In assay [5], the IC50 result is “Not Active”.
